Test results from US10479795B2 (Incyte Corporation, priority 2016, dated 2019).
Structures can show the parent of a compound that is named as a salt.

Key:
[1] = target: PI3Kδ (p110δ/p85α) Recombinant Human Protein (Homo sapiens (Human), UniProt O00329); assay: PI3Kδ Scintillation Proximity Assay; type: biochemical
Description: Example C. PI3Kδ Scintillation Proximity Assay
[γ-^33P]ATP (10 mCi/mL) and Wheat Germ Agglutinin (WGA) YSi SPA Scintillation Beads was purchased from Perkin-Elmer (Waltham, Mass.). Lipid kinase substrate, D-myo-Phosphatidylinositol 4,5-bisphosphate (PtdIns(4,5)P2)D (+)-sn-1,2-di-O-octanoylglyceryl, 3-O-phospho linked (PIP2), CAS 204858-53-7, was purchased from Echelon Biosciences (Salt Lake City, Utah). PI3Kδ (p110δ/p85α) Recombinant Human Protein was purchased from Eurofins (St Charles, Mo.). ATP, MgCl2, DTT, EDTA, MOPS and CHAPS were purchased from Sigma-Aldrich (St. Louis, Mo.).
The kinase reaction was conducted in polystyrene 384-well Greiner Bio-one white plate from Thermo Fisher Scientific in a final volume of 25 μL. Inhibitors were first diluted serially in DMSO and added to the plate wells before the addition of other reaction components. The final concentration of DMSO in the assay was 2%. The PI3Kδ assay was carried out at room temperature in 20 mM MOPS, pH 6.7, 10 mM MgCl2, 5 mM DTT and CHAPS 0.03%. Reactions were initiated by the addition of ATP, the final reaction mixture consisted of 20 μM PIP2, 2 μM ATP, 0.5 μCi [γ-^33P] ATP, 3.4 nM PI3Kδ. Reactions were incubated for 120 min and terminated by the addition of 40 μL SPA beads suspended in quench buffer: 163 mM potassium phosphate pH 7.8, 20% glycerol, 25 mM EDTA. The final concentration of SPA beads is 1.0 mg/mL. After the plate sealing, plates were shaken overnight at room temperature and centrifuged at 1500 rpm for 10 min, the radioactivity of the product was determined by scintillation counting on Topcount (Perkin-Elmer). IC50 determination was performed by fitting the curve of percent of the solvent control activity versus the log of the inhibitor concentration using the GraphPad Prism 6.0 software.

[2] = target: PI3Kγ (p110γ) Recombinant Human Protein (Homo sapiens (Human), UniProt P48736); assay: PI3K-γ Scintillation Proximity Assay; type: biochemical; settings: read-out: PI3Kγ IC50
PI3Kγ (p110γ) Recombinant Human Protein, sequence (P48736 whole entry): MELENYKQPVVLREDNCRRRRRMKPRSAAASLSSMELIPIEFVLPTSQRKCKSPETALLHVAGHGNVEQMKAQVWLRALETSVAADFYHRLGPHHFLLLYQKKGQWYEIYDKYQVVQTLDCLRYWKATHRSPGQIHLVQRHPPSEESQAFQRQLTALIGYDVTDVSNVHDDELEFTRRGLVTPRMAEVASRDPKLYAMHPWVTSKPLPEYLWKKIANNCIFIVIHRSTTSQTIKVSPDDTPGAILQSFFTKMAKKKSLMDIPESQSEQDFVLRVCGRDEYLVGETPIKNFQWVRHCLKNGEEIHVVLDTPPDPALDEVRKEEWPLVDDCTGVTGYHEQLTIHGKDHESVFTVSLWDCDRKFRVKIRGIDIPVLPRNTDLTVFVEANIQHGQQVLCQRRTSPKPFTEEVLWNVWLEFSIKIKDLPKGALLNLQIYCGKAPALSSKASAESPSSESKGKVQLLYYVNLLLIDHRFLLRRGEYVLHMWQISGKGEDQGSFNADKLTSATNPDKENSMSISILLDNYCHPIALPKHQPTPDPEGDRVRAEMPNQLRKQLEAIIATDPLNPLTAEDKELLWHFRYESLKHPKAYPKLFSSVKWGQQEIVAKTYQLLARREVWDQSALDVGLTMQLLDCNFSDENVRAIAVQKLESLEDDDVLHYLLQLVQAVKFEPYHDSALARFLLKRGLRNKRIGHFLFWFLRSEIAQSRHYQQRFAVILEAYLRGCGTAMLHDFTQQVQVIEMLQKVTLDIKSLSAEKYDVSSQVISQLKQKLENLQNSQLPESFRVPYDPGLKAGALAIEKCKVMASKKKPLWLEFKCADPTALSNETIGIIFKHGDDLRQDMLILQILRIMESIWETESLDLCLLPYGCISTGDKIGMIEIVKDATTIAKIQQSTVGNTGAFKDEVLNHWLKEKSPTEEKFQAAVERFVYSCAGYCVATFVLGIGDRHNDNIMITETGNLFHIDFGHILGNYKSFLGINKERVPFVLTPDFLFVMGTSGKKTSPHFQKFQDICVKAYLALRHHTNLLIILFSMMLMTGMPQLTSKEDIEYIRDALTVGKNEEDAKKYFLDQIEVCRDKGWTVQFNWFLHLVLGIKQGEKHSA
In short: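 Recombinant human p110γ assayed at room temperature in 20 mM MOPS pH 6.7, 10 mM MgCl2, 5 mM DTT, 0.03% CHAPS, 2% DMSO, with 20 μM PIP2 and 2 μM ATP plus [γ-33P]ATP. Product captured on WGA SPA beads overnight and counted; IC50 fitted from % of solvent-control activity versus log inhibitor concentration.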

PI3Kδ (p110δ/p85α) Recombinant Human Protein, sequence (O00329 whole entry): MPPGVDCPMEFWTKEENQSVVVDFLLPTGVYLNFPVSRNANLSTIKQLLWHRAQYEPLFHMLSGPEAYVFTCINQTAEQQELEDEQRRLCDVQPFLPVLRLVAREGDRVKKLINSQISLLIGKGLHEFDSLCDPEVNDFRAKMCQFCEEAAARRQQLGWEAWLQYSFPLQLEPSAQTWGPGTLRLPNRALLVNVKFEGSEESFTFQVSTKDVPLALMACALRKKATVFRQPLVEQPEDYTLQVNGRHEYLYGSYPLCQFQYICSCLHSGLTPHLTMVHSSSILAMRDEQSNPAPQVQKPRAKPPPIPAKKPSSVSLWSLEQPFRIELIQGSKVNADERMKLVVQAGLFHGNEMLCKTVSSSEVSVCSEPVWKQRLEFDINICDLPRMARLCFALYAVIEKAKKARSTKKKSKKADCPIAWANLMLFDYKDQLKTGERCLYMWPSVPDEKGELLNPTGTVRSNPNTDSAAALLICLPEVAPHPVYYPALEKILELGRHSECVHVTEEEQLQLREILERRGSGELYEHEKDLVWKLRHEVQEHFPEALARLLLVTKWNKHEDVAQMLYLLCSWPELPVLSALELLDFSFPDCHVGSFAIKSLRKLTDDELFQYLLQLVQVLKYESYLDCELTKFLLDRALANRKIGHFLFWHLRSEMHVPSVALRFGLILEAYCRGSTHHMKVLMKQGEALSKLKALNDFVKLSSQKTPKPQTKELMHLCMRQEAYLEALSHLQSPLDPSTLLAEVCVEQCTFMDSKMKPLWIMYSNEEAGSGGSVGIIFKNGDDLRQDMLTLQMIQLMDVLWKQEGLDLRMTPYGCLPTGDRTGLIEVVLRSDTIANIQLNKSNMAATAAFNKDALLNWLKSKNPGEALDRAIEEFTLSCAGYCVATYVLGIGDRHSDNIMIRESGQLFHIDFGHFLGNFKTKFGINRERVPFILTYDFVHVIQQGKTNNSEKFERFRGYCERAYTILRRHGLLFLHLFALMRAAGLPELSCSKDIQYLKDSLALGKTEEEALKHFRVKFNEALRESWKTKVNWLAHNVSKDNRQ
PI3Kδ (p110δ/p85α) Recombinant Human Protein, sequence (P27986 whole entry partner): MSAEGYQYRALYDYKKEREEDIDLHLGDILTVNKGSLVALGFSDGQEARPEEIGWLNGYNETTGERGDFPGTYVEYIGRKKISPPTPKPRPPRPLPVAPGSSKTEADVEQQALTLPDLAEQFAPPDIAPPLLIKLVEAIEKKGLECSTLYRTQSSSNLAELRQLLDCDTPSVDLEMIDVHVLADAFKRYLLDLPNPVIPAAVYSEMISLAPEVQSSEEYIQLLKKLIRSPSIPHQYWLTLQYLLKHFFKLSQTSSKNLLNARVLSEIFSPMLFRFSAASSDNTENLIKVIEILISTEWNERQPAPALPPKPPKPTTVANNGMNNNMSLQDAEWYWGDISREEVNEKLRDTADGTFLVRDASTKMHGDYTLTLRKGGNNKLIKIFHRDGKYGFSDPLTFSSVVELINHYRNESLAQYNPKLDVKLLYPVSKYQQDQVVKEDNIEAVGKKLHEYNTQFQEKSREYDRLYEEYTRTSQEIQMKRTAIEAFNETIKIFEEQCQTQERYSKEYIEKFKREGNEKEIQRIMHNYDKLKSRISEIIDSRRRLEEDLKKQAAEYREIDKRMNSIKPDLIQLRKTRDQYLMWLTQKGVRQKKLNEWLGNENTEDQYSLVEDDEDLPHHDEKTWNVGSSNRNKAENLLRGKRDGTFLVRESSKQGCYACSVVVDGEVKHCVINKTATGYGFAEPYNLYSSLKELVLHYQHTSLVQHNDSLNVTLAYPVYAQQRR

Row | SMILES | IC50 [1] [µM] | IC50 [2] [µM]
1 | Nc1ncnn2c(-c3cccc(S(=O)(=O)NC45CCC(CO)(C4)C5)c3)cnc12 [Example 368, 3-(4-Aminoimidazo[1,2-f][1,2,4]triazin-7-yl)-N-(4-(hydroxymethyl)bicyclo[2.1.1]hexan-1-yl)benzenesulfonamide trifluoroacetate salt] | 0.1 to 0.5 | < 0.1
2 | Cc1ccc(S(=O)(=O)N2CCC(O)CC2)cc1-c1cnc2c(N)ncnn12 [Example 66, 1-{[3-(4-Aminoimidazo[2,1-f][1,2,4]triazin-7-yl)-4-methylphenyl]sulfonyl}piperidin-4-ol] | > 2 | 0.1 to 0.5
3 | Cc1ccc(S(C)(=O)=O)cc1-c1cnc2c(N)nc(C(=O)NC3CCCN(CC#N)C3)cn12 (centres unmarked) [Example 459, 8-Amino-N-(1-(cyanomethyl)piperidin-3-yl)-3-(2-methyl-5-(methylsulfonyl)phenyl)imidazo[1,2-a]pyrazine-6-carboxamide trifluoroacetate salt] | > 2 | 0.1 to 0.5
4 | Cc1ccc(S(=O)(=O)N(C)CC2(CO)CC2)cc1-c1cnc2c(N)ncnn12 [Example 160, 3-(4-aminoimidazo[2,1-f][1,2,4]triazin-7-yl)-N-((1-(hydroxymethyl)cyclopropyl)methyl)-N,4-dimethylbenzenesulfonamide] | 0.5 to 2 | 0.1 to 0.5
5 | Cc1ccc(S(=O)(=O)N(C)CCC#N)cc1-c1cnc2c(N)ncnn12 [Example 154, 3-(4-aminoimidazo[2,1-f][1,2,4]triazin-7-yl)-N-(2-cyanoethyl)-N,4-dimethylbenzenesulfonamide] | > 2 | < 0.1
6 | Cc1ccc(S(=O)(=O)N2CCC(O)C3(CC3)C2)cc1-c1cnc2c(N)ncnn12 (centres unmarked) [Example 119, 5-{[3-(4-aminoimidazo[2,1-f][1,2,4]triazin-7-yl)-4-methylphenyl]sulfonyl}-5-azaspiro[2.5]octan-8-ol] | > 2 | 0.1 to 0.5
7 | Cc1ccc(S(=O)(=O)N2C3CCC2CC(N2CCOCC2)C3)cc1-c1cnc2c(N)ncnn12 (centres unmarked) [Example 169, 7-(2-methyl-5-((3-morpholino-8-azabicyclo[3.2.1]octan-8-yl)sulfonyl)phenyl)imidazo[2,1-f][1,2,4]triazin-4-amine] | > 2 | 0.1 to 0.5
8 | Cc1ccc(S(=O)(=O)N2CCCC(NC(=O)C3CC3)C2)cc1-c1cnc2c(N)nc(C(F)(F)F)cn12 (centres unmarked) [Example 517, N-(1-((3-(8-Amino-6-(trifluoromethyl)imidazo[1,2-a]pyrazin-3-yl)-4-methylphenyl)sulfonyl)piperidin-3-yl)cyclopropanecarboxamide trifluoroacetate] | 0.5 to 2 | < 0.1
9 | Cc1ccc(S(=O)(=O)N2CCCC2c2c(C)noc2C)cc1-c1cnc2c(N)nc(C(F)(F)F)cn12 (centres unmarked) [Example 300, 3-(5-((2-(3,5-dimethylisoxazol-4-yl)pyrrolidin-1-yl)sulfonyl)-2-methylphenyl)-6-(trifluoromethyl)imidazo[1,2-a]pyrazin-8-amine] | 0.5 to 2 | < 0.1
10 | Cc1ccc(S(=O)(=O)N(C)CC(F)(F)F)cc1-c1cnc2c(N)ncnn12 [Example 163, 3-(4-aminoimidazo[2,1-f][1,2,4]triazin-7-yl)-N,4-dimethyl-N-(2,2,2-trifluoroethyl)benzenesulfonamide] | 0.5 to 2 | < 0.1
11 | Nc1nccn2c(-c3ccc(F)c(S(=O)(=O)N[C@H]4CC[C@H](O)CC4)c3)cnc12 [Example 45, 5-(8-Aminoimidazo[1,2-a]pyrazin-3-yl)-2-fluoro-N-(trans-4-hydroxycyclohexyl)benzenesulfonamide] | 0.5 to 2 | < 0.1

Second part, the molecule after the results:

Row | IC50 [1] [µM] | IC50 [2] [µM] | SMILES
12 | 0.5 to 2 | < 0.1 | Cc1ccc(S(=O)(=O)N2CC(C3COC3)C2)cc1-c1cnc2c(N)ncnn12 [Example 153, 7-(2-methyl-5-((3-(oxetan-3-yl)azetidin-1-yl)sulfonyl)phenyl)imidazo[2,1-f][1,2,4]triazin-4-amine]
13 | 0.5 to 2 | 0.5 to 2 | Cc1ccc(S(C)(=O)=O)cc1-c1cnc2c(N)nc(C(=O)Nc3ccc(N4CCN(C)CC4)cn3)cn12 [Example 455, 8-amino-3-(2-methyl-5-(methylsulfonyl)phenyl)-N-(5-(4-methylpiperazin-1-yl)pyridin-2-yl)imidazo[1,2-a]pyrazine-6-carboxamide trifluoroacetate salt]
14 | 0.5 to 2 | < 0.1 | COCC1(N(C)S(=O)(=O)c2ccc(C)c(-c3cnc4c(N)ncnn34)c2)CC1 [Example 177, 3-(4-aminoimidazo[2,1-f][1,2,4]triazin-7-yl)-N-(1-(methoxymethyl)cyclopropyl)-N,4-dimethylbenzenesulfonamide]
15 | 0.5 to 2 | < 0.1 | Cc1ccc(S(=O)(=O)N2CC3CC3(C#N)C2)cc1-c1cnc2c(N)nc(C(F)(F)F)cn12 (centres unmarked) [Example 302, 3-((3-(8-amino-6-(trifluoromethyl)imidazo[1,2-a]pyrazin-3-yl)-4-methylphenyl)sulfonyl)-3-azabicyclo[3.1.0]hexane-1-carbonitrile]
16 | 0.5 to 2 | < 0.1 | Cc1ccc(S(=O)(=O)N2CC3C(O)C2CN3C2CCC(C#N)C2)cc1-c1cnc2c(N)nc(C(F)(F)F)nn12 (centres unmarked) [Example 351, 3-(5-((3-(4-amino-2-(trifluoromethyl)imidazo[2,1-f][1,2,4]triazin-7-yl)-4-methylphenyl)sulfonyl)-7-hydroxy-2,5-diazabicyclo[2.2.1]heptan-2-yl)cyclopentane-1-carbonitrile]
17 | 0.5 to 2 | < 0.1 | CCCN(CC1CC1)S(=O)(=O)c1ccc(C)c(-c2cnc3c(N)ncnn23)c1 [Example 164, 3-(4-aminoimidazo[2,1-f][1,2,4]triazin-7-yl)-N-(cyclopropylmethyl)-4-methyl-N-propylbenzenesulfonamide]
18 | 0.1 to 0.5 | 0.1 to 0.5 | Cc1cc(C)c(S(=O)(=O)NCC(C)(C)O)cc1-c1cnc2c(N)nccn12 [Example 361, 5-(8-aminoimidazo[1,2-a]pyrazin-3-yl)-N-(2-hydroxy-2-methylpropyl)-2,4-dimethylbenzenesulfonamide]
19 | 0.5 to 2 | < 0.1 | CCN1CC2C(O)C1CN2S(=O)(=O)c1ccc(C)c(-c2cnc3c(N)nc(C(F)(F)F)nn23)c1 (centres unmarked) [Example 349, 2-((3-(4-amino-2-(trifluoromethyl)imidazo[2,1-f][1,2,4]triazin-7-yl)-4-methylphenyl)sulfonyl)-5-ethyl-2,5-diazabicyclo[2.2.1]heptan-7-ol]
20 | 0.5 to 2 | 0.1 to 0.5 | Cc1ccc(S(=O)(=O)N2CCCC(CNC(=O)CN(C)C)C2)cc1-c1cnc2c(N)nc(C(F)(F)F)cn12 (centres unmarked) [Example 514, N-((1-((3-(8-Amino-6-(trifluoromethyl)imidazo[1,2-a]pyrazin-3-yl)-4-methylphenyl)sulfonyl)piperidin-3-yl)methyl)-2-(dimethylamino)acetamide]
21 | 0.5 to 2 | < 0.1 | Cc1ccc(S(=O)(=O)N2CC3NCC2C3O)cc1-c1cnc2c(N)nc(C(F)(F)F)cn12 (centres unmarked) [Example 303, 2-((3-(8-amino-6-(trifluoromethyl)imidazo[1,2-a]pyrazin-3-yl)-4-methylphenyl)sulfonyl)-2,5-diazabicyclo[2.2.1]heptan-7-ol 2HCl]
22 | 0.5 to 2 | 0.1 to 0.5 | CCOc1ncc(-c2cnc3c(N)cc(Cl)cn23)cc1NS(=O)(=O)CC [Example 7, N-[5-(8-Amino-6-chloroimidazo[1,2-a]pyridin-3-yl)-2-ethoxypyridin-3-yl]ethanesulfonamide bis(trifluoroacetate)]
23 | 0.1 to 0.5 | < 0.1 | COC1CCCN(S(=O)(=O)c2ccc(C)c(-c3cnc4c(N)nc(C(F)(F)F)cn34)c2)C1 (centres unmarked) [Example 313, 3-(5-((3-Methoxypiperidin-1-yl)sulfonyl)-2-methylphenyl)-6-(trifluoromethyl)imidazo[1,2-a]pyrazin-8-amine]
24 | 0.1 to 0.5 | < 0.1 | Cc1ccc(S(=O)(=O)N2CC3(CCN(C)C3=O)C2)cc1-c1cnc2c(N)ncnn12 [Example 195, 2-((3-(4-Aminoimidazo[2,1-f][1,2,4]triazin-7-yl)-4-methylphenyl)sulfonyl)-6-methyl-2,6-diazaspiro[3.4]octan-5-one]
25 | 0.1 to 0.5 | < 0.1 | CO[C@@H]1CN(S(=O)(=O)c2ccc(C)c(-c3cnc4c(N)ncnn34)c2)C[C@H]1F [Example 151, 7-(5-(((3R,4R)-3-fluoro-4-methoxypyrrolidin-1-yl)sulfonyl)-2-methylphenyl)imidazo[2,1-f][1,2,4]triazin-4-amine]
